# Experiments:
# [1] = system: human ovarian cancer epithelial cells from ascites fluid; test: Tumor in Dish model using primary tumor cells: cancer cells; type: cell-based; settings: TiD with primary patient cells, FIG. 5
# Excerpt: Human ovarian cancer epithelial cells were isolated from the ascites fluid of a patient and combined with normal cells as described in Example 1 to form TiD.
smiles,measurement,setting,value
N.N.[Cl][Pt][Cl] [cisplatin],effect on the surrounding normal cells,normal cells in the PLiD,affected the normal cells
same,killing of ovarian cancer cells from the ascites fluid,[1],killed most of the ovarian cancer cells
